Experiment: wn = mass fraction of the nth substance listed
Conditions: Pendant drop shape

[Cl-].[Na+] [sodium chloride] + O
surface tension liquid-gas [mN/m]
Conditions	w1 = 0.025	w1 = 0.05	w1 = 0.075	w1 = 0.1	w1 = 0.125	w1 = 0.15	w1 = 0.175	w1 = 0.2	w1 = 0.225	w1 = 0.25
293.15 K	73.42	74.09	74.85	75.6	76.54	77.52	78.7	79.82	81.03	81.95
298.15 K	72.63	73.32	74.15	74.9	75.8	76.7	77.82	78.85	80.32	81.41
303.15 K	71.83	72.56	73.35	74.17	75.09	76.11	77.2	78.26	79.77	80.8
313.15 K	70.33	71.12	71.95	72.81	73.86	74.9	75.98	76.99	78.54	79.7
323.15 K	68.93	69.91	70.62	71.32	72.46	73.55	74.68	75.71	77.32	78.45
333.15 K	67.21	68.24	69.21	70.14	71.18	72.22	73.43	74.52	76.01	77.14

O [water] + [I-].[K+]
w2 = 0
Conditions	surface tension liquid-gas [mN/m]
293.15 K	72.75
298.15 K	71.97
303.15 K	71.15
313.15 K	69.55
323.15 K	67.9
333.15 K	66.17

[Br-].[K+] [potassium bromide] + O
surface tension liquid-gas [mN/m]
Conditions	w1 = 0.05	w1 = 0.1	w1 = 0.15	w1 = 0.2	w1 = 0.25	w1 = 0.3	w1 = 0.35	w1 = 0.4
293.15 K	73.93	74.51	74.9	75.3	76.16	77.43	78.85	80.3
303.15 K	72.42	73.05	73.27	73.82	74.82	76.15	77.51	78.92
313.15 K	70.85	71.44	71.74	72.29	73.39	74.72	76.17	77.58
323.15 K	69.14	69.86	70.21	70.82	71.86	73.23	74.64	76.06
333.15 K	67.31	67.95	68.49	69.25	70.24	71.64	73.11	74.53
343.15 K	65.4	66.14	66.77	67.46	68.61	69.93	71.39	72.87
353.15 K	63.44	64.11	64.86	65.73	66.79	68.15	69.57	71.22

[I-].[Na+] [sodium iodide] + O
surface tension liquid-gas [mN/m]
Conditions	293.15 K	298.15 K	303.15 K	313.15 K	323.15 K	333.15 K
w1 = 0.05	73.15	72.4	71.66	70.23	68.78	67.4
w1 = 0.1	73.6	73	72.22	70.81	69.34	67.93
w1 = 0.15	74.17	73.48	72.79	71.36	69.81	68.42
w1 = 0.2	74.7	73.96	73.34	71.85	70.35	68.86
w1 = 0.25	75.15	74.4	73.8	72.45	70.95	69.43
w1 = 0.3	75.5	74.9	74.26	72.92	71.56	69.96
w1 = 0.35	76.29	75.71	75.08	73.76	72.5	71.19
w1 = 0.4	77.1	76.5	75.85	74.6	73.35	72.24
w1 = 0.45	78.25	77.63	77.03	75.96	74.77	73.77
w1 = 0.5	79.35	78.85	78.34	77.3	76.17	75.04
w1 = 0.55	80.66	80.14	79.68	78.66	77.68	77.15

O [water] + [Cl-].[K+]
w2 = 0
Conditions	surface tension liquid-gas [mN/m]
293.15 K	72.75
303.15 K	71.15
313.15 K	69.55
323.15 K	67.9
333.15 K	66.17
343.15 K	64.39
353.15 K	62.61

O [water] + [Cl-].[Na+]
w2 = 0
Conditions	surface tension liquid-gas [mN/m]
293.15 K	72.75
298.15 K	71.97
303.15 K	71.15
313.15 K	69.55
323.15 K	67.9
333.15 K	66.17

O [water] + [I-].[Na+]
w2 = 0
Conditions	surface tension liquid-gas [mN/m]
293.15 K	72.75
298.15 K	71.97
303.15 K	71.15
313.15 K	69.55
323.15 K	67.9
333.15 K	66.17

O [water] + [Br-].[K+]
w2 = 0
Conditions	surface tension liquid-gas [mN/m]
293.15 K	72.75
303.15 K	71.15
313.15 K	69.55
323.15 K	67.9
333.15 K	66.17
343.15 K	64.39
353.15 K	62.61

Source: the NIST ThermoML archive (doi:10.1021/acs.jced.7b00503)
